Test results: patent US7932271B2, “Heterocyclic methyl sulfone derivative” (Daiichi Pharmaceutical Co., Ltd., priority 2003, dated 2011)

How the values were obtained:
[1] = system: β amyloid protein (Aβ) secreted by E35 cells (human glioma H4 cells transfected with APP751 gene); assay: Inhibition of production or secretion of β-amyloid protein (Aβ) in E35 cells, sandwich ELISA of the supernatant; assay type: cell-based; settings: 24 hours with test compound, compared to DMSO control cells, read-out: Activity (IC50, concentration at which 50% inhibition of Aβ production was observed)
Procedure: The inhibitory activity against formation of β amyloid protein of the compounds obtained in Examples was tested in the method described bellow.
E35 cells were established by transfecting APP751 gene which is a wild type human β-amyloid protein precursor into human glioma cells (H4 cells).
E35 cells were seeded in 96-well plates and cultured in an incubator of 37° C. by using a Dulbecco's Modified Eagle's Medium containing 10% inactivated fetal bovine serum (10% FBS-DMEM). Twenty-four hours after seeding, a test compound dissolved in DMSO so as to give its concentration to be 2000 times as much as that of the final concentration was added to the medium in an amount of 1/2000 capacity of the culture medium. The cells were cultured for additional twenty-four hours, and then the supernatant was collected. The amount of β amyloid protein (Aβ) secreted in the supernatant was measured by the sandwich enzyme-linked immunosorbent assay (ELISA). Described specifically, a monoclonal antibody 25-1, which recognized Aβ25-35, was immobilized onto a 96-well ELISA plate, followed by the incubation at 4° C. for 16 to 20 hours. After washing with a phosphate buffer (pH 7.4) (PBS), a biotinylated monoclonal antibody MA32-40, which recognized Aβ1-8, was added, and the plate was kept at 4° C. for 2 hours. After the supernatant was removed and the well was washed sufficiently with PBS, alkaline phosphatase-conjugated streptavidin was added to the plate. Absorbance was measured while adding BlouPhos (manufactured by KPL) as a substrate. An amount of Aβ contained in the supernatant was calculated using a calibration curve separately created using Aβ of a known concentration. IC50 of the test compound was presented as the concentration at which 50% inhibition of Aβ production was observed compared to the amount of Aβ of the control cells to which only DMSO was added.
When there is at least 10-times difference between the IC50 and the concentration at which cytotoxicity appears, then the compound is judged as a compound having an inhibitory activity against production or secretion of β amyloid protein.

O=S(=O)(Cc1ccncc1)Nc1cc(C(c2cc(F)ccc2F)S(=O)(=O)c2ccc(Cl)cc2)c(Cl)cn1 (centres unmarked) [Example 269, N-[5-Chloro-4-[(4-chlorophenylsulfonyl)(2,5-difluorophenyl)methyl]pyridin-2-yl]-1-pyridin-4-ylmethanesulfonamide]
IC50 [1]: < 5 nM | melting point: 257 °C (dec.)

O=S(=O)(c1ccc(Cl)cc1)C(c1ccc(CO)cn1)c1cc(F)ccc1F (centres unmarked) [Example 43, 2-[(4-Chlorophenylsulfonyl)-(2,5-difluorophenyl)methyl]-5-(hydroxymethyl)pyridine]
IC50 [1]: 50 to 500 nM | melting point: 151 to 152 °C

Cn1cnc(S(=O)(=O)Nc2cc(C(c3cc(F)ccc3F)S(=O)(=O)c3ccc(Cl)cc3)c(Cl)cn2)c1 (centres unmarked) [Example 268, N-[5-Chloro-4-[(4-chlorophenylsulfonyl)(2,5-difluorophenyl)methyl]pyridin-2-yl]-1-methyl-1H-imidazole-4-sulfonamide]
IC50 [1]: < 5 nM | melting point: 294 to 296 °C

O=S(=O)(c1ccc(Cl)cc1)C(c1cc(F)ccc1F)C1CCCCC1 (centres unmarked) [Example 1, 2-[[(4-Chlorophenyl)sulfonyl](cyclohexyl)methyl]-1,4-difluorobenzene]
IC50 [1]: 50 to 500 nM | melting point: 107 to 109 °C

O=S(=O)(c1ccc(Cl)cc1)C(c1ccc(C2OCCO2)cn1)c1cc(F)ccc1F (centres unmarked) [Example 42, 2-[(4-Chlorophenylsulfonyl)-(2,5-difluorophenyl)methyl]-5-(1,3-dioxolan-2-yl)pyridine]
IC50 [1]: 50 to 500 nM | melting point: 167 to 168 °C

Nc1cc(C(c2cc(F)ccc2F)S(=O)(=O)c2ccc(Cl)cc2)c(Cl)cn1 (centres unmarked) [Example 196, [5-Chloro-4-[(4-chlorophenylsulfonyl)(2,5-difluorophenyl)methyl]pyridin-2-yl]amine]
IC50 [1]: < 5 nM | melting point: 147 to 150 °C

COc1ccc(S(=O)(=O)C(c2cc(F)ccc2F)c2cc(N)ncc2Cl)cc1 (centres unmarked) [Example 240, [5-Chloro-4-[(2,5-difluorophenyl)(4-methoxyphenylsulfonyl)methyl]pyridin-2-yl]amine]
IC50 [1]: 5 to 50 nM | melting point: 153 to 155 °C

CS(=O)(=O)Nc1cc(C(c2cc(C#N)ccc2F)S(=O)(=O)c2ccc(Cl)cc2)c(Cl)cn1 (centres unmarked) [Example 236, N-[5-Chloro-4-[(4-chlorophenylsulfonyl)(5-cyano-2-fluorophenyl)methyl]pyridin-2-yl]methanesulfonamide]
IC50 [1]: < 5 nM | melting point: 118 to 120 °C

O=S(=O)(c1ccc(Cl)cc1)C(c1cc(F)ccc1F)c1cc(N2CCCS2(=O)=O)ncc1Cl (centres unmarked) [Example 274, 5-Chloro-4-[(4-chlorophenylsulfonyl)(2,5-difluorophenyl)methyl]-2-(1,1-dioxo-1λ^6-isothiazolidin-2-yl)pyridine]
IC50 [1]: 5 to 50 nM | melting point: 219 to 221 °C

Nc1cc(C(c2cc(F)ccc2F)S(=O)(=O)c2ccc(Cl)c(F)c2)c(Cl)cn1 (centres unmarked) [Example 251, [5-Chloro-4-[(4-chloro-3-fluorophenylsulfonyl)(2,5-difluorophenyl)methyl]pyridin-2-yl]amine]
IC50 [1]: < 5 nM | melting point: 159 to 160 °C

Nc1cc(C(c2cc(F)ccc2F)S(=O)(=O)c2ccc(Cl)s2)c(Cl)cn1 (centres unmarked) [Example 243, [5-Chloro-4-[(5-chlorothiophen-2-ylsulfonyl)(2,5-difluorophenyl)methyl]pyridin-2-yl]amine]
IC50 [1]: 5 to 50 nM | melting point: 170 to 171 °C

CS(=O)(=O)N(N)c1cc(C(c2cc(F)ccc2F)S(=O)(=O)c2ccc(Cl)cc2)c(Cl)cn1 (centres unmarked) [Example 225, 1-[5-Chloro-4-[(4-chlorophenylsulfonyl)(2,5-difluorophenyl)methyl]pyridin-2-yl]-1-methylsulfonylhydrazine]
IC50 [1]: 5 to 50 nM | melting point: 152 to 154 °C

O=S(=O)(c1ccc(Cl)cc1)C(c1ccncc1)c1cc(F)ccc1F (centres unmarked) [Example 20, 4-[[(4-Chlorophenyl)sulfonyl]-(2,5-difluorophenyl)methyl]pyridine]
IC50 [1]: 50 to 500 nM | melting point: 126 to 127 °C

O=S(=O)(c1ccc(Cl)cc1)C(c1cc(F)ccc1F)c1cc(NS(=O)(=O)N2CCCCC2)ncc1Cl (centres unmarked) [Example 270, N-[5-Chloro-4-[(4-chlorophenylsulfonyl)(2,5-difluorophenyl)methyl]pyridin-2-yl]piperidine-1-sulfonamide]
IC50 [1]: 5 to 50 nM | melting point: 192 to 194 °C

Nc1cc(C(c2cc(F)ccc2F)S(=O)(=O)c2ccc(Cl)cc2)c(F)cn1 (centres unmarked) [Example 203, [4-[(4-Chlorophenylsulfonyl)(2,5-difluorophenyl)methyl]-5-fluoropyridin-2-yl]amine]
IC50 [1]: 5 to 50 nM | melting point: 181 to 183 °C

O=C(O)CCc1cc(C(c2cc(F)ccc2F)S(=O)(=O)c2ccc(Cl)cc2)c(Cl)cn1 (centres unmarked) [Example 261, 3-[5-Chloro-4-[(4-chlorophenylsulfonyl)(2,5-difluorophenyl)methyl]pyridin-2-yl]propionic acid]
IC50 [1]: 5 to 50 nM | melting point: 194 to 196 °C
